These molecules were tested against T1, HIV protease (Human immunodeficiency virus type 1 group M subtype B, UniProt P04585) (assay: Recombinant HIV Protease HPLC Assay). Details: recombinant HIV protease expressed in E. coli; substrate VSFNFPQITL-NH₂; pH 5.5; 37° for 30 min; HPLC readout.
T1 construct: HIV protease was expressed in E. coli; made in house; host or cells: E. coli
Format: biochemical
Text: The procedure is based on the capacity of the test compound to inhibit enzymatic cleavage by HIV protease of a decapeptide (the substrate) having an amino acid sequence which includes a known HIV protease cleavage site of a HIV polyprotein; see H.G. Krausslich et al., Proc. Natl. Acad. Sci. USA, 86, 807 (1989). Details of this assay together with the results obtained for exemplified compounds of formula 1 are described in the examples hereinafter.
Recombinant HIV Protease HPLC Assay: Enzyme: HIV protease was expressed in E. coli [construct pBRT1 prt⁺, see W.G. Farmerie et al., Science, 236,305 (1987)], according to the following protocol: Unless stated otherwise, all solutions are aqueous solutions.
E. coli cells containing the pBRT1 prt⁺ plasmid were used to inoculate a seed culture media composed of Luria-Bertani Broth containing 100µg/mL of ampicillin. Flasks were incubated at 37° under agitation for 17 h. Production flasks containing sterile M9 broth, supplemented with 100µg/ml of ampicillin, were inoculated at a level of 1% (v/v) using the seed culture described above. Total volume in each production flask was 500 mL in a 2 L Erlenmeyer flask. Flasks were incubated at 37° under agitation until a cell concentration corresponding to an optical density (λ = […]) of 0.6 was reached (no dilution). This time span was routinely 3-4 h. Flasks were then supplemented with 5mM isopropylthiogalactoside (IPTG, Research Organics, Cleveland, Ohio, USA) and incubation was continued until the cell concentration reached an optical density of 0.2 at 16-fold dilution. Flasks were then supplemented with 1mM phenylmethylsulfonyl fluoride (PMSF) and rapidly chilled to 4°. The bacterial cells were recovered by centrifugation at 4°. The wet pellet was stored at -70°.
All steps below were performed at 4° unless otherwise indicated. Thawed cells were mixed with buffer A [50 mM […] HCl(Tris-HCl, pH 7.4); 0.6 mM ethylenediaminetetraacetic acid (EDTA); 0.375 M NaCl, 0.2% Nonidet P-40 ^R (BDH Chemicals Ltd., Poole, UK); 1mM PMSF], at a ratio of one part cells to nine parts buffer A. Diatomaceous earth (Celite 545 ^R , John Manville, Lompoc, CA, USA) was added at a ratio of two parts to one part of wet cell weight. The resulting slurry was homogenized at high speed (ca. 20,000 rpm) on a Waring ^R industrial blender for 8 x 15 sec. pulses. Cell debris/Celite ^R was collected by centrifugation and the resulting pellet was extracted with 4.5 parts of buffer A to one part wet solids using the homogenization procedure described above. Supernatants from both homogenization steps were combined and soluble protein was precipitated by the addition of solid (NH₄)₂SO₄ to yield a final concentration of 75% saturation. This mixture was agitated for 60 min and the precipitate was recovered by centrifugation. The resulting pellet was suspended in buffer B [50mM Tris-HCl, pH 8; 30 mM NaCl; 1 mM DL-dithiothreitol(DTT); 1 mM EDTA; 1 mM PMSF; 10% glycerol], and dialyzed for 18h against the same buffer.
An aliquot of the dialyzed extract containing 150 mg of the protein was loaded onto a Sephadex A25 ^R anion exchange column. (Pharmacia, Uppsala, Sweden) with bed dimensions of 70 cm length and 2.5 cm diameter. The sample was eluted isocratically with buffer B at a linear flow rate of 10 cm/h. Fractions containing HIV protease activity (see below for assay description) were combined, and soluble protein was precipitated by the addition of saturated aqueous (NH₄)₂SO₄ to yield a total (NH₄)₂SO₄ concentration of 85% saturation. Precipitated protein was removed by centrifugation and the resulting pellet was dissolved in buffer C[50 mM 2-(4-morpholino)ethanesulfonic acid (MES), pH 5.5; 150 mM NaCl; 1 mM DTT; 1 mM EDTA; 10% glycerol]. This preparation was dialyzed for 18h against buffer C, and then frozen at -70°. All crude extracts were purified by chromatography in aliquots containing 150 mg of protein in the same manner as described above. […]

SMILES | IC50
CCC(CC)C(=O)NC(C(=O)NC(CC1CCCCC1)C(O)CC(=O)NC(CC1CC1)C(=O)NCCCc1ccccc1)C(C)C (stereo not shown) [(C2H5)2CHC(O)-Val-ACHPA-Cpa-NHCH2CH2CH2Ph] | 135 nM
CC(C)(C)CC(=O)NC(C(=O)NC(CC1CCCCC1)C(O)CC(=O)NC(CCC(=O)O)C(=O)NCCc1ccccc1)C(C)(C)C (stereo not shown) [(CH3)3CCH2C(O)-Tbg-ACHPA-Glu-NHCH2CH2Ph, (CH₃)₃CCH₂C(O)-Tbg-ACHPA-Glu-NHCH₂CH₂Ph] | 110 nM
COC(=O)CCC(NC(=O)CC(O)C(CC1CCCCC1)NC(=O)C(NC(=O)C(O)CO)C(C)(C)C)C(=O)NCCc1ccccc1 [(S)-HOCH₂CH(OH)C(O)-Tbg-ACHPA-Glu(OMe)NHCH₂CH₂Ph] | 200 nM
CC(C)(C)C(NC(=O)C(O)CO)C(=O)NC(CC1CCCCC1)C(O)CC(=O)NC(CCC(=O)O)C(=O)NCCc1ccccc1 [(S)-HOCH₂CH(OH)C(O)-Tbg-ACHPA-Glu-NHCH₂CH₂Ph] | 9.2 nM
CC(=O)NC(C(=O)NC(CC1CCCCC1)C(O)CC(=O)NC(CC1CC1)C(=O)NCCc1ccccc1)C(C)(C)C (stereo not shown) [Ac-Tbg-ACHPA-Cpa-NHCH2CH2Ph, Ac-Tbg-ACHPA-Cpa-NHCH₂CH₂Ph] | 93 nM
COC(=O)CCC(NC(=O)CC(O)C(CC1CCCCC1)NC(=O)C(NC(C)=O)C(C)(C)C)C(=O)NCCc1ccccc1 (stereo not shown) [Ac-Tbg-ACHPA-Glu(OMe)-NHCH2CH2Ph, Ac-Tbg-ACHPA-Glu(OMe)-NHCH₂CH₂Ph] | 150 nM
CC(=O)NC(C(=O)NC(CC1CCCCC1)C(O)CC(=O)NC(CCC(=O)O)C(=O)NCCc1ccccc1)C(C)(C)C (stereo not shown) [Ac-Tbg-ACHPA-Glu-NHCH2CH2Ph, Ac-Tbg-ACHPA-Glu-NHCH₂CH₂Ph] | 12 nM
COC(=O)CCC(NC(=O)CC(O)C(CC1CCCCC1)NC(=O)C(NC(C)=O)C(C)C)C(=O)NCCc1ccccc1 (stereo not shown) [Ac-Val-ACHPA-Glu(OMe)-NHCH2CH2Ph, Ac-Val-ACHPA-Glu(OMe)NHCH₂CH₂Ph] | 480 nM
CC(=O)NC(C(=O)NC(CC1CCCCC1)C(O)CC(=O)NC(CCC(=O)O)C(=O)NCCc1ccccc1)C(C)C (stereo not shown) [Ac-Val-ACHPA-Glu-NHCH2CH2Ph, Ac-Val-ACHPA-Glu-NHCH₂CH₂Ph] | 31 nM
CC(=O)NC(C(=O)NC(CNC(CC(C)C)C(=O)NC(CCC(=O)O)C(=O)NCCc1ccccc1)Cc1ccccc1)C(C)C (stereo not drawn) [Ac-Val-Pheψ[CH2NH]Leu-Glu-NHCH2CH2Ph, Ac-Val-PheΨ[CH₂NH]Leu-Glu-NHCH₂CH₂Ph] | 16 nM
CCC(=O)NC(C(=O)NC(CC1CCCCC1)C(O)CC(=O)NC(CCC(=O)O)C(=O)NCCc1ccccc1)C(C)(C)C (stereo not shown) [CH3CH2C(O)-Tbg-ACHPA-Glu-NHCH2CH2Ph, CH₃CH₂C(O)-Tbg-ACHPA-Glu-NHCH₂CH₂Ph] | 15 nM

These molecules were tested on HIV (assay: Inhibition of syncytia formation by HIV in HTLV-I transformed C8166 cells (adapted plaque assay)). Details: Human immunodeficiency virus 1, IIIB, C8166, 72 h, read-out: inhibition of syncytia formation.
Format: cell-based, H9/HTLV-IIIB
Text: Typical of such procedures are those described by S. Harada and N. Yamamoto, Jpn. J. Cancer Res. (Gann), 76, 432 (1985), and S. Harada et al., Science 229, 563 (1985). An assay based on the latter procedures is described in the examples hereinafter.
The following protocol, used for screening antiviral effects of the compounds of formula 1, is adapted from a plaque assay utilizing HTLV-I transformed cells which was developed by Harada et al., supra. HTLV-I transformed cells are used in these assays because of the rapidity with which HIV will replicate in these cells. • 1. The test compound is dissolved in dimethylsulfoxide to a concentration of 5 mg/mL. The resultant solution can be stored at 4° until used. • 2. The resultant solution is diluted in RPMI 1640 (Gibco Laboratories, St. Lawrence, MA, USA) to four times (4x) the final concentration which is to be tested. Once diluted in RPMI 1640, the solution is used in the cell culture assay within 4 h. • 3. The 4x solution (50µL) is added to triplicate wells of a 96 well flat bottomed microtiter plate. RPMI […] also is added to control wells. • 4. […] Infectious titer of virus stocks are as previously determined by end point dilution on C8166 cells. […] Plates are then removed and centers of syncytia are counted in each well by low power phase contrast light microscopy. […] Percent inhibition of syncytia formation is calculated by the formula: [formula]

SMILES | inhibition at 20 µg/mL
COC(=O)CCC(NC(=O)CC(O)C(CC1CCCCC1)NC(=O)C(NC(=O)C(O)CO)C(C)(C)C)C(=O)NCCc1ccccc1 [(S)-HOCH₂CH(OH)C(O)-Tbg-ACHPA-Glu(OMe)NHCH₂CH₂Ph] | 100%
CCC(=O)NC(C(=O)NC(CC1CCCCC1)C(O)CC(=O)NC(CCC(=O)O)C(=O)NCCc1ccccc1)C(C)(C)C (stereo not shown) [CH3CH2C(O)-Tbg-ACHPA-Glu-NHCH2CH2Ph, CH₃CH₂C(O)-Tbg-ACHPA-Glu-NHCH₂CH₂Ph] | 49%

Reference: patent EP0443573A2, “HIV protease inhibitors containing derived amino acids” (BIO-MEGA/BOEHRINGER INGELHEIM RESEARCH INC., priority 1990, dated 1991)
